Laboratory results published in patent US20250144067A1, “PERSONALIZED STARVATION THERAPY FOR CANCER” (Faeth Therapeutics, Inc., priority 2021, published 2025).
Counter-ions that a name gives are not always drawn.

What was measured:
[1] = tested on: NCI-H292 lung cancer cells; test: FDA drug screening, complete media vs cholesterol-free media without statin (TABLE 1); type: cell-based, human
[2] = tested on: NCI-H292 lung cancer cells; test: FDA drug screening, complete media vs cholesterol-free media with simvastatin (TABLE 2); type: cell-based, human; conditions: for Cholesterol-free media + simvastatin (0.04 μM) / Complete Media: NCI-H292 cells
[3] = Complete minus Cholesterol-free, greater than 0 enhanced anti-cancer activity, about 0 neutral, below 0 antagonists
[4] = NCI-H292 cells in cholesterol-free media without statin
[5] = NCI-H292 cells in complete media
[6] = FDA drug library screen, cholesterol-free media with simvastatin 0.04 μM
[7] = FDA drug library screen, complete media
[8] = complete media vs cholesterol-free media + simvastatin (0.04 μM), >0 enhanced anti-cancer activity, about 0 neutral, <0 antagonist
[9] = NCI-H292 cells, cholesterol-free media without statin
[10] = complete vs cholesterol-free media, greater than 0 enhanced anti-cancer activity, about 0 neutral, below 0 antagonists
[11] = cholesterol-free media with simvastatin 0.04 μM, FDA drug library screen (TABLE 2)
[12] = complete media, FDA drug library screen (TABLE 2)
[13] = complete media minus cholesterol-free media + simvastatin (0.04 μM), >0 enhanced anti-cancer activity, about 0 neutral, <0 antagonist
[14] = cholesterol-free media with simvastatin 0.04 μM, cell growth value in FDA drug screen
[15] = complete media, cell growth value in FDA drug screen
[16] = complete media minus cholesterol-free media + simvastatin, >0 enhanced anti-cancer activity, about 0 neutral, <0 antagonist
[17] = Complete minus Cholesterol-free, >0 enhanced anti-cancer activity, about 0 neutral, <0 antagonist
[18] = NCI-H292 cells, cholesterol-free media without statin, FDA drug library screen
[19] = NCI-H292 cells, complete media, FDA drug library screen
[20] = FDA library drug in cholesterol-free media with simvastatin 0.04 μM
[21] = FDA library drug in complete media
[22] = Complete minus Cholesterol-free, greater than 0 enhanced anti-cancer activity, about 0 neutral, below 0 antagonist
[23] = NCI-H292 cells, FDA drug library screen, cholesterol-free media without statin
[24] = NCI-H292 cells, FDA drug library screen, complete media
[25] = complete media vs cholesterol-free media + simvastatin (0.04 μM), […]
[26] = Complete minus Cholesterol-free, […]
[27] = complete media minus cholesterol-free media + simvastatin, […]

Molecule: OC(c1cc(C(F)(F)F)nc2c(C(F)(F)F)cccc12)C1CCCCN1 (centres unmarked) [Mefloquine (hydrochloride)]
- Difference [1, 3]: −0.49
- Cholesterol-free [1, 4]: 1.439
- Complete [1, 5]: 0.9523
- Cholesterol-free media + simvastatin (0.04 μM) [2, 6]: 1.137
- Complete Media [2, 7]: 1.057
- Difference [2, 8]: −0.08

Molecule: COc1cc2nc(N3CCN(C(=O)[C@H]4CCCO4)CC3)nc(N)c2cc1OC [(R)-Terazosin]
- Cholesterol-free [1, 9]: 1.165
- Complete ([1]; NCI-H292 cells, complete media): 0.7551
- Difference [1, 10]: −0.41
- Cholesterol-free media + simvastatin (0.04 μM) [2, 11]: 0.9379
- Complete Media [2, 12]: 0.9227
- Difference [2, 13]: −0.02

Molecule: CNCC[C@@H](Oc1ccccc1C)c1ccccc1 [Atomoxetine (hydrochloride)]
- Difference [1, 3]: −0.68
- Cholesterol-free [1, 4]: 1.663
- Complete [1, 5]: 0.988
- Cholesterol-free media + simvastatin (0.04 μM) [2, 14]: 1.776
- Complete Media [2, 15]: 1.803
- Difference [2, 16]: 0.03

Molecule: Riboflavin (phosphate sodium)
- Cholesterol-free [1, 9]: 1.308
- Complete ([1]; NCI-H292 cells, complete media): 0.9828
- Difference [1, 10]: −0.32
- Cholesterol-free media + simvastatin (0.04 μM) [2, 6]: 1.127
- Complete Media [2, 7]: 0.9972
- Difference [2, 8]: −0.13

Molecule: CN(C)[C@@H](CCOc1cccc2ccccc12)c1ccccc1 [Dapoxetine (hydrochloride)]
- Cholesterol-free [1, 9]: 1.092
- Complete ([1]; NCI-H292 cells, complete media): 0.7794
- Difference [1, 10]: −0.31
- Cholesterol-free media + simvastatin (0.04 μM) [2, 11]: 1.079
- Complete Media [2, 12]: 1.031
- Difference [2, 13]: −0.05

Molecule: O=C(c1ccc(F)c(F)c1Nc1ccc(I)cc1F)N1CC(O)([C@@H]2CCCCN2)C1 [Cobimetinib]
- Difference [1, 17]: −0.06
- Cholesterol-free [1, 18]: 0.2958
- Complete [1, 19]: 0.2361
- Cholesterol-free media + simvastatin (0.04 μM) [2, 11]: 0.5825
- Complete Media [2, 12]: 0.5258
- Difference [2, 13]: −0.06

Molecule: C[C@@H]1O[C@@H]1P(=O)(O)O [Fosfomycin (sodium)]
- Difference [1, 17]: −0.22
- Cholesterol-free [1, 9]: 1.096
- Complete ([1]; NCI-H292 cells, complete media): 0.8782
- Cholesterol-free media + simvastatin (0.04 μM) [2, 6]: 1.163
- Complete Media [2, 7]: 1.004
- Difference [2, 8]: −0.16

Molecule: Bedaquiline (fumarate)
- Cholesterol-free [1, 9]: 1.587
- Complete ([1]; NCI-H292 cells, complete media): 1.119
- Difference [1, 10]: −0.47
- Cholesterol-free media + simvastatin (0.04 μM) [2, 14]: 0.9095
- Complete Media [2, 15]: 0.9785
- Difference [2, 16]: 0.07

Molecule: Cc1onc(-c2ccccc2)c1-c1ccc(S(N)(=O)=O)cc1 [Valdecoxib]
- Difference [1, 17]: 0.02
- Cholesterol-free [1, 18]: 0.9021
- Complete [1, 19]: 0.9224
- Cholesterol-free media + simvastatin (0.04 μM) [2, 14]: 0.9234
- Complete Media [2, 15]: 0.9538
- Difference [2, 16]: 0.03

Molecule: (+)-Catechin hydrate
- Difference [1, 17]: 0.05
- Difference [2, 13]: −0.05

Molecule: CCN(CC)CCOC(=O)C(c1ccccc1)c1ccccc1 [Adiphenine (hydrochloride)]
- Difference [1, 17]: −0.20
- Cholesterol-free [1, 9]: 1.088
- Complete ([1]; NCI-H292 cells, complete media): 0.8864
- Cholesterol-free media + simvastatin (0.04 μM) [2, 20]: 1.255
- Complete Media [2, 21]: 0.9527
- Difference [2, 8]: −0.30

Molecule: NC(=O)c1cnccn1 [Pyrazinamide]
- Difference [1, 17]: 0.04
- Cholesterol-free [1, 18]: 0.9745
- Complete [1, 19]: 1.011
- Cholesterol-free media + simvastatin (0.04 μM) [2, 6]: 0.9396
- Complete Media [2, 7]: 0.8009
- Difference [2, 8]: −0.14

Molecule: C1N2CN3CN1CN(C2)C3.O=C(O)CNC(=O)c1ccccc1 [Methenamine (hippurate)]
- Difference [1, 17]: 0.05
- Cholesterol-free [1, 18]: 0.09528
- Complete [1, 19]: 0.1431
- Cholesterol-free media + simvastatin (0.04 μM) [2, 11]: 0.3855
- Complete Media [2, 12]: 0.3286
- Difference [2, 13]: −0.06

Molecule: COc1ccc2cc3[n+](cc2c1OC)CCc1cc2c(cc1-3)OCO2.O.[Cl-] [Berberine (chloride hydrate)]
- Difference [1, 22]: −0.18
- Cholesterol-free [1, 23]: 0.263
- Complete [1, 24]: 0.07956
- Cholesterol-free media + simvastatin (0.04 μM) [2, 11]: 0.3813
- Complete Media [2, 12]: 0.3495
- Difference [2, 13]: −0.03

Molecule: CC(C)C[C@H](NC(=O)[C@@H](O)[C@H](N)Cc1ccccc1)C(=O)O [Bestatin (hydrochloride)]
- Cholesterol-free [1, 9]: 1.217
- Complete ([1]; NCI-H292 cells, complete media): 0.9083
- Difference [1, 10]: −0.31
- Cholesterol-free media + simvastatin (0.04 μM) [2, 6]: 1.299
- Difference [2, 8]: −0.15

Molecule: NCCCC(N)(C(=O)O)C(F)F (centres unmarked) [Eflornithine (hydrochloride hydrate)]
- Difference [1, 17]: −0.22
- Cholesterol-free [1, 9]: 0.965
- Complete ([1]; NCI-H292 cells, complete media): 0.7419
- Cholesterol-free media + simvastatin (0.04 μM) ([2]; drug in cholesterol-free media with simvastatin 0.04 μM): 1.426
- Complete Media ([2]; drug in complete media): 1.224
- Difference [2, 8]: −0.20

Molecule: CCOC(=O)c1ccc(N)cc1 [Benzocaine]
- Difference [1, 17]: −0.30
- Cholesterol-free [1, 9]: 0.9439
- Complete ([1]; NCI-H292 cells, complete media): 0.6479
- Cholesterol-free media + simvastatin (0.04 μM) [2, 20]: 1.309
- Complete Media [2, 21]: 1.007
- Difference [2, 8]: −0.30

Molecule: Cc1ccc(NC(=O)c2ccc(CN3CCN(C)CC3)cc2)cc1Nc1nccc(-c2cccnc2)n1 [Imatinib]
- Cholesterol-free [1, 9]: 1.28
- Complete ([1]; NCI-H292 cells, complete media): 0.9175
- Difference [1, 10]: −0.36
- Cholesterol-free media + simvastatin (0.04 μM) [2, 11]: 1.214
- Complete Media [2, 12]: 1.199
- Difference [2, 13]: −0.01

Molecule: C#C[C@]1(O)CC[C@H]2[C@@H]3CCc4cc(OC5CCCC5)ccc4[C@H]3CC[C@@]21C [Quinestrol]
- Cholesterol-free [1, 9]: 1.478
- Complete ([1]; NCI-H292 cells, complete media): 1.012
- Difference [1, 10]: −0.47
- Cholesterol-free media + simvastatin (0.04 μM) [2, 11]: 0.01915
- Complete Media [2, 12]: 0.02153
- Difference [2, 13]: 0.00

Molecule: CN(C)CCN(Cc1ccccc1)c1ccccn1 [Tripelennamine (hydrochloride)]
- Difference [1, 22]: −0.13
- Cholesterol-free [1, 23]: 1.185
- Complete [1, 24]: 1.051
- Cholesterol-free media + simvastatin (0.04 μM) [2, 20]: 1.12
- Complete Media [2, 21]: 0.8343
- Difference [2, 8]: −0.29

Molecule: CCN(CC)CCNC(=O)c1ccc(NC(C)=O)cc1 [N-Acetylprocainamide]
- Cholesterol-free [1, 18]: 1.279
- Complete [1, 19]: 1.656
- Difference ([1]; complete vs cholesterol-free media, […]): 0.38
- Cholesterol-free media + simvastatin (0.04 μM) [2, 6]: 0.9234
- Complete Media [2, 7]: 0.8479
- Difference [2, 25]: −0.08

Molecule: CCOC(=O)CC(=O)N1CCSC1COc1ccccc1OC (centres unmarked) [Moguisteine]
- Cholesterol-free [1, 18]: 0.7084
- Complete [1, 19]: 1.262
- Difference ([1]; complete vs cholesterol-free media, >0 enhanced anti-cancer activity, about 0 neutral, <0 antagonist): 0.55
- Cholesterol-free media + simvastatin (0.04 μM) [2, 11]: 0.9351
- Complete Media [2, 12]: 0.879
- Difference [2, 13]: −0.06

Molecule: CC1(C)CCC(C)(C)c2cc(NC(=O)c3ccc(C(=O)O)cc3)ccc21 [Tamibarotene]
- Difference [1, 26]: −0.24
- Cholesterol-free [1, 9]: 0.7767
- Complete ([1]; NCI-H292 cells, complete media): 0.5392
- Cholesterol-free media + simvastatin (0.04 μM) [2, 6]: 0.556
- Complete Media [2, 7]: 0.7365
- Difference [2, 27]: 0.18

Molecule: Bulleyaconitine A
- Difference [1, 26]: −0.17
- Cholesterol-free [1, 23]: 1.261
- Complete [1, 24]: 1.091
- Difference [2, 27]: 0.03

Molecule: NC(=NCc1ccccc1)NC(=O)c1nc(Cl)c(N)nc1N [Benzamil (hydrochloride)]
- Difference [1, 17]: −0.30
- Cholesterol-free [1, 9]: 0.9643
- Complete ([1]; NCI-H292 cells, complete media): 0.6686
- Cholesterol-free media + simvastatin (0.04 μM) [2, 11]: 0.8193
- Complete Media [2, 12]: 0.8118
- Difference [2, 13]: −0.01

Molecule: COCCCOc1cc(C[C@@H](C[C@H](N)[C@@H](O)C[C@H](C(=O)NCC(C)(C)C(N)=O)C(C)C)C(C)C)ccc1OC [Aliskiren]
- Difference [1, 3]: −0.67
- Cholesterol-free [1, 4]: 1.754
- Complete [1, 5]: 1.084
- Cholesterol-free media + simvastatin (0.04 μM) [2, 20]: 1.326
- Complete Media [2, 21]: 0.8268
- Difference [2, 8]: −0.50

Molecule: C[C@@H]1CN(c2c(F)c(N)c3c(=O)c(C(=O)O)cn(C4CC4)c3c2F)C[C@H](C)N1 [Sparfloxacin]
- Difference [1, 3]: −0.52
- Cholesterol-free [1, 4]: 1.45
- Complete [1, 5]: 0.9275
- Cholesterol-free media + simvastatin (0.04 μM) [2, 6]: 0.949
- Complete Media [2, 7]: 1.118
- Difference [2, 16]: 0.17

Molecule: Cc1ccc([C@@H]2O[C@H](CO)[C@@H](O)[C@H](O)[C@H]2O)cc1Cc1ccc(-c2ccc(F)cc2)s1.O [Canagliflozin (hemihydrate)]
- Difference [1, 26]: −0.51
- Cholesterol-free [1, 4]: 1.347
- Complete [1, 5]: 0.8359
- Cholesterol-free media + simvastatin (0.04 μM) [2, 20]: 1.34
- Complete Media [2, 21]: 0.8924
- Difference [2, 25]: −0.45

Molecule: C[n+]1ccccc1/C=N/O.[Cl-] [Pralidoxime (chloride)]
- Difference [1, 26]: −0.31
- Cholesterol-free [1, 9]: 1.203
- Complete ([1]; NCI-H292 cells, complete media): 0.8976
- Cholesterol-free media + simvastatin (0.04 μM) [2, 20]: 1.051
- Complete Media [2, 21]: 0.7574
- Difference [2, 25]: −0.29

Molecule: CC1(C)S[C@@H]2[C@H](NC(=O)[C@H](NC(=O)N3CCNC3=O)c3ccccc3)C(=O)N2[C@H]1C(=O)O [Azlocillin (sodium salt)]
- Difference [1, 22]: −0.16
- Cholesterol-free [1, 23]: 1.217
- Complete [1, 24]: 1.06
- Cholesterol-free media + simvastatin (0.04 μM) [2, 6]: 1.046
- Complete Media [2, 7]: 0.9592
- Difference [2, 8]: −0.09
